Source: US20160102093A1, “CO-PROCESSING METHOD AND FORMULATION FOR HIV ATTACHMENT INHIBITOR PRODRUG COMPOUND AND EXCIPIENTS” (BRISTOL-MYERS SQUIBB COMPANY, priority 2011, published 2016)

Assays:
Format in all cases: physicochemical
Conditions in all cases: unprocessed API vs. co-processed prodrug/HPMC batches from Example 1
Bulk density of powder = assay: Bulk density of powder
Tapped density of powder = assay: Tapped density of powder
Powder flow = assay: Powder flow

COc1cnc(-n2cnc(C)n2)c2c1c(C(=O)C(=O)N1CCN(C(=O)c3ccccc3)CC1)cn2COP(=O)(O)O [API, 1-benzoyl-4-[2-[4-methoxy-7-(3-methyl-1H-1,2,4-triazol-1-yl)-1-[(phosphonooxy)methyl]-1H-pyrrolo[2,3-c]pyridin-3-yl]-1,2-dioxoethyl]-piperazine]
Bulk Density (Bulk density of powder): 0.13 g/cc
Tapped Density (Tapped density of powder): 0.23 g/cc
Flow (Powder flow): incomplete
Volumetric Flow (Powder flow): incomplete
